Experiments:
Plasmodium falciparum [1] = experiment: Antimalarial activity against Plasmodium falciparum 3D7 at 100 uM by SYBR green assay; format: functional; settings: read-out: GI
Plasmodium falciparum [2] = experiment: Antimalarial activity against Plasmodium falciparum 3D7 after 48 hrs by SYBR green assay; format: functional, organism-based; settings: 3D7, 48 h

Structure (SMILES) | EC50 (Plasmodium falciparum [2]) | inhibition of growth at 100 µM (Plasmodium falciparum [1])
COC(=O)[C@@H](C)NP(=O)(OC[C@H]1O[C@@H](n2cc(C)c(=O)[nH]c2=O)C[C@@H]1N=[N+]=[N-])Oc1ccccc1 (stereo partly specified) | 120 µM | 35%
CCOC(=O)[C@H](NP(=O)(OC[C@H]1O[C@@H](n2cc(C)c(=O)[nH]c2=O)C[C@@H]1N=[N+]=[N-])Oc1ccccc1)C(C)C (stereo partly specified) | 80 µM | 69%
COC(=O)[C@@H](C)NP(=O)(OC[C@@H]1C=C[C@H](n2cc(C)c(=O)[nH]c2=O)O1)Oc1ccccc1 (stereo partly specified) | > 100 µM | 9%
CCOC(=O)[C@H](NP(=O)(OC[C@@H]1C=C[C@H](n2cc(C)c(=O)[nH]c2=O)O1)Oc1ccccc1)C(C)C (stereo partly specified) | > 100 µM | 18%
CCOC(=O)[C@H](NP(=O)(OC[C@H]1O[C@@H](n2cnc3c(=O)[nH]c(N)nc32)C[C@@H]1N=[N+]=[N-])Oc1ccccc1)C(C)C (stereo partly specified) | 66 µM | 80%

Further lines, with some results ahead:

EC50 (Plasmodium falciparum [2]) | Structure (SMILES) | inhibition of growth at 100 µM (Plasmodium falciparum [1])
> 100 µM | Cc1cn([C@@H]2C[C@H](N=[N+]=[N-])[C@@H](CO)O2)c(=O)[nH]c1=O | 0%
67 µM | CCOC(=O)[C@H](NP(=O)(OC[C@H]1O[C@H](n2cc(C)c(=O)[nH]c2=O)C[C@@H]1N=[N+]=[N-])Oc1ccccc1)C(C)C (stereo partly specified) | 78%
> 100 µM | Cc1cn([C@H]2C[C@H](N=[N+]=[N-])[C@@H](CO)O2)c(=O)[nH]c1=O [ZIDOVUDINE] | 0%
